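Exposure lasted 48 hours, with cells grown in 96-well plates and compounds tested at five concentrations. The concentration for 50% growth inhibition is given as GI50. TGI denotes the concentration required for complete inhibition of growth.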 Where a SMILES comes first, the peptide text is derived from it. [ ]: non-standard residue; d: D form. The star is where a group is joined. Lauroyl = CCCCCCCCCCCC(=O)*; Aib = CC(C)(N)C(=O)O; βAla = NCCC(=O)O
Test system: MDA-MB-468 breast
Experiment: NCI anticancer screen, dose series, 48 h

O=C(Nc1ccc(Nc2ccncc2)cc1)c1ccc([N+](=O)[O-])cc1
GI50: 1.75 µM
TGI: 5.2 µM

CC(=O)Nc1ccc(S(=O)(=O)N2C(=O)CCC2C(=O)Nc2ccc(Br)cc2)cc1 (stereo not drawn)
GI50: 1.02 µM
TGI: 5.55 µM

CN1CCN(C2CCN(C(=O)Nc3cc(Oc4ccc(NC(=O)C5(C(=O)Nc6ccc(F)cc6)CC5)c(F)c4)ccn3)CC2)CC1
GI50: 1.03 µM
TGI: > 2.41 µM

NC(=O)/C=C/C(=O)c1c(Cl)cccc1Cl
GI50: 0.292 µM
TGI: 0.971 µM

Cc1ccc(SC2c3ccc(C)cc3Oc3nc(N)c(C#N)c(N)c32)cc1 (stereo not drawn)
GI50: 1.77 µM
TGI: 3.74 µM

COC(=O)C[C@](O)(CCCC(C)(C)O)C(=O)O[C@@H]1C(OC)=C[C@]23CCCN2CCc2cc4c(cc2[C@H]13)OCO4
GI50: 0.0102 µM
TGI: 0.0367 µM

COc1ccc(OC)c2c1[nH]c(=O)c1c3ccccc3cn21
GI50: 1.08 µM
TGI: 2.55 µM

Oc1ccc(Nc2ncnc3c2sc2ncccc23)cc1
GI50: 0.0751 µM
TGI: 21 µM

COc1cccc(CC(C)=C(c2ccc(OCCN(C)C)cc2)c2ccc(OCCN(C)C)cc2)c1
GI50: 1.16 µM
TGI: 5.26 µM

N#Cc1c(NC(=O)NCc2ccccc2)sc2c1CCCCC2
GI50: 0.317 µM
TGI: 3.52 µM

COc1ccccc1/C=N\N/C(N)=N\N=C\c1ccccc1OC
GI50: 0.613 µM
TGI: > 45.7 µM

C#CCOc1cccc(-c2ncc3cc(NC(=O)CCl)ccc3n2)c1
GI50: 1.74 µM
TGI: 3.55 µM

NC(=S)N/N=C/C(=O)O
GI50: 23.9 µM
TGI: > 100 µM

CCOC(=O)C1=CN(C)C=C(C(=O)OCC)C1c1cc(Br)c(OCC)c(OC)c1
GI50: > 100 µM
TGI: > 100 µM

Nc1ccc([N+](=O)[O-])cc1N=C/C=C/c1ccccc1
GI50: 4.68 µM
TGI: 43 µM

C[N+](C)(C)CC1CCCc2ccccc2C1=O (stereo not drawn)
GI50: 1.91 µM
TGI: 3.76 µM

c1ccc(-c2nnc(-c3ccccn3)s2)nc1
GI50: 9.76 µM
TGI: > 100 µM

COc1ccc(Sc2[nH]c(C(C)=O)c3ccccc23)cc1
GI50: 3.89 µM
TGI: 41.4 µM

COc1cc(Nc2ncccc2C(=O)NCc2cn(Cc3cccc(Oc4ccccc4)c3)nn2)cc(OC)c1
GI50: 2.42 µM
TGI: 7.01 µM

Cc1cc(C)c2c(n1)sc1c(Nc3ccc(Cl)cc3)ncnc12
GI50: 0.0218 µM
TGI: 27 µM

C=C(C=O)[C@@H]1CC[C@]2(CO)CC[C@]3(C)[C@H](CC[C@@H]4[C@@]5(C)CCCNC(C)(C)[C@@H]5CC[C@]43C)[C@@H]12
GI50: 3.77 µM
TGI: 16.5 µM

Cc1cc(Cl)cc(OCCn2cc(F)cn2)c1-c1nc(N)nc2c1CN(C(=O)NCC(C)(F)F)C2
GI50: 0.0361 µM
TGI: 3.13 µM

COC(=O)c1ccc2c(c1)nc(NC(=O)c1ccccc1)n2CCCc1ccccc1
GI50: 3.05 µM
TGI: > 80 µM

CC1(C)N=C(N)N=C(N)N1c1ccc(CCCCc2ccc(Cl)cc2S(=O)(=O)F)c(Cl)c1
GI50: 0.569 µM
TGI: 5.87 µM

COc1ccc(/C=C\[N+](=O)[O-])cc1OC
GI50: 3.05 µM
TGI: 11.3 µM

CCN1CCN(C(=O)[C@@]2(C)CC[C@]3(C)CC[C@]4(C)C(=CC(=O)[C@@H]5[C@@]6(C)CC[C@H](OC7C[C@@H](O)[C@@H](O)C(C)O7)C(C)(C)[C@@H]6CC[C@]54C)[C@@H]3C2)CC1 (stereo partly drawn)
GI50: 1.49 µM
TGI: 6.17 µM

O=C(O)COc1ccc2c(=O)c3sc4c(=O)c5ccccc5c(=O)c4c3c(=O)c2c1
GI50: 14.9 µM
TGI: 35.4 µM

Cn1c(I)c(C#CCO[Si](C)(C)C(C)(C)C)c(=O)[nH]c1=O
GI50: 1.88 µM
TGI: 4.33 µM

CC1(C)[C@@H](O)CC[C@]2(C)[C@H]3CC[C@@H]4[C@H]5[C@H](C(=O)/C=C\c6ccccn6)CC[C@]5(O)CC[C@@]4(C)[C@]3(C)CC[C@@H]12
GI50: 1.4 µM
TGI: 3.96 µM

Cn1cc(C2=C(c3ccc(N)cc3)C(=O)NC2=O)c2ccccc21
GI50: 7.84 µM
TGI: > 25 µM

CNCc1ccccc1-c1csc([C@@H](C)Nc2nc(C)nc3cc(OC)c(OC)cc23)c1
GI50: 1.1 µM
TGI: 2.59 µM

CCCCCCCCCCCC(=O)NC(C)(C)C(=O)N1CCCC1C(=O)NC(C)(C)C(=O)NC(C)(C)C(=O)N1CCCC1C(=O)NC(C)(C)C(=O)NC(C)(C)C(=O)N1CCCC1C(=O)NC(C)C(=O)NCCC(=O)NC(C)C(=O)NC(C)(C)C(=O)NC(C)(C)C(=O)NC(C)(C)C(=O)NCCC(=O)NC(C)(C)C(=O)NC(C)(C)C(=O)NC(C)(C)C(=O)NC(C)C(=O)NCCC(=O)O (stereo not drawn) (Lauroyl-[Aib]P[Aib][Aib]P[Aib][Aib]PA[βAla]A[Aib][Aib][Aib][βAla][Aib][Aib][Aib]A[βAla]-OH; configuration not given here)
GI50: 0.328 µM
TGI: 0.739 µM

COc1cccc(F)c1C(=O)c1cnc(NC2CCN(S(C)(=O)=O)CC2)nc1N
GI50: 3.75 µM
TGI: 9.91 µM

COc1cc(OCc2cccc(-c3ccc(C(O)c4nccs4)cc3)c2C)cc(OC)c1C=O (stereo not drawn)
GI50: 0.267 µM
TGI: 2.51 µM

CC/C=C\C[C@H](O)C/C=C1/C(=O)C(Cl)=C[C@@H]1C/C=C\CCCC(=O)OC
GI50: 0.554 µM
TGI: 3.06 µM

CCCn1cnc2c(c1=N)C(c1ccc(Cl)cc1)c1sc3c(CC)cccc3c1O2 (stereo not drawn)
GI50: 0.508 µM
TGI: 4.14 µM

O=C(Nc1ccc(Br)cc1F)c1cc(F)ccc1O
GI50: 1.13 µM
TGI: 4.92 µM

CCN(CC)CCC(CNc1ccnc2cc(Cl)ccc12)c1ccc(Cl)cc1 (stereo not drawn)
GI50: 0.413 µM
TGI: 1.52 µM

Nc1nn2cc(F)cnc2c1C(=O)Nc1cncc(F)c1N1CCC(C(=O)N2CCN(C3COC3)CC2)CC1
GI50: 0.165 µM
TGI: 0.682 µM

Source: PubChem BioAssay (NCI)
